These results are taken from US20250073311A1, “DOSAGE REGIME” (ZEALAND PHARMA A/S, priority 2021, published 2025).

One assay concerns the target T1, human GLP-1 receptor (Homo sapiens, UniProt P43220).
T1 construct: expressed in transfected cells
Put plainly: GLP-1 receptor potency assay (cAMP AlphaScreen). It is filed as cell-based. The following applies: HEK293 cells expressing human GLP-1R, cAMP response. Background: In Alpha technology, singlet oxygen from a donor bead excites a nearby acceptor bead.

A further assay concerns the target T2, human GLP-2 receptor (Homo sapiens, UniProt O95838, D470N).
T2 sequence (O95838 1-553 D470N): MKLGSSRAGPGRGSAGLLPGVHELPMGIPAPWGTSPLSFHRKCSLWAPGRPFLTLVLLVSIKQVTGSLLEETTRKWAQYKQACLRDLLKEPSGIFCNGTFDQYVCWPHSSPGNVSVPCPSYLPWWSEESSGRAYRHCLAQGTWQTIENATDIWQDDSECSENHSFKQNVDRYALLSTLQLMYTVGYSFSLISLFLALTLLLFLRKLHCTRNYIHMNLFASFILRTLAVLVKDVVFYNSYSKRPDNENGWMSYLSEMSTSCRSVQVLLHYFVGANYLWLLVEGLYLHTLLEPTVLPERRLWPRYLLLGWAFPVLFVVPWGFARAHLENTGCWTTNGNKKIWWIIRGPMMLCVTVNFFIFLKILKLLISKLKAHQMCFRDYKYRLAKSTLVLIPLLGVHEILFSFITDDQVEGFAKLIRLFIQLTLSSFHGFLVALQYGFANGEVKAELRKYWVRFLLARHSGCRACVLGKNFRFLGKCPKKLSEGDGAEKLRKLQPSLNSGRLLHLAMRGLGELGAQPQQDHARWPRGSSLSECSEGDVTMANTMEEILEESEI
Put plainly: GLP-2 receptor potency assay (cAMP AlphaScreen). It is filed as cell-based. As to conditions: HEK293 cells expressing human GLP-2R, cAMP response; N/A = no detectable activity. The source says: The hGLP2-R was purchased from MRC-geneservice, Babraham, Cambridge as an Image clone: 5363415 (11924-117). For subcloning into a mammalian expression vector, primers for subcloning were obtained from DNA-Technology, Risskov, Denmark. The 5′ and 3′ primers used for the PCR reaction include terminal restriction sites for cloning and the context of the 5′ primer is modified to a Kozak consensus without changing the sequence of the product encoded by the ORF. A standard PCR reaction was run using Image clone 5363415 (11924-117) as a template with the above mentioned primers and Polymerase Herculase II Fusion in a total vol. of 50 μl. The generated PCR product was purified using GFX PCR and Gel band purification kit, digested with restriction enzymes and cloned into the mammalian expression vector using Rapid DNA Ligation Kit. Ligation reaction was transformed to XL10 Gold Ultracompetent cells and colonies were picked for DNA production using Endofree Plasmid maxi kit. Subsequent sequence analysis was conducted by MWG Eurofins, Germany.
HEK293 cells were transfected using the Lipofectamine PLUS transfection method. The day before transfection, HEK293 cells were seeded in two T75 flasks at a density of 2×10^6 cells/T75 flask in cell culturing medium without antibiotics. […] Following 4 weeks in G418 selection, clones were picked and tested in a functional GLP-2 receptor potency assay as described below.
Data from test compounds eliciting an increase in the intracellular level of cAMP were normalized relative to the positive and negative control (vehicle) to calculate the EC50 and maximal response from the concentration response curve.

Assay [1] concerns the target T3, human GLP-2 receptor (hGLP2-R) (human, UniProt O95838).
T3 sequence: T2 sequence (O95838 1-553 D470N)

The target of assay [2] is human glucagon-like peptide 1 receptor (GLP-1R) (human) (UniProt P43220).

Numbered stars: 1 amine (or outer) side, 2 acyl side, 3 side chain; on linkers, the order of the positions; unused ones are H or OH. Square brackets hold non-standard residues; d marks the D form. Side chains are listed from the residue outwards. Peptide text beside a SMILES is read from it. * marks the point of attachment. C20 diacid = O=C(O)CCCCCCCCCCCCCCCCCCC(=O)*; γGlu = O=C(O)[C@H](CCC(=O)[*:2])N[*:1]; AEEA = NCCOCCOCC(=O)O; Aib = CC(C)(N)C(=O)O

T1 sequence (P43220 24-463): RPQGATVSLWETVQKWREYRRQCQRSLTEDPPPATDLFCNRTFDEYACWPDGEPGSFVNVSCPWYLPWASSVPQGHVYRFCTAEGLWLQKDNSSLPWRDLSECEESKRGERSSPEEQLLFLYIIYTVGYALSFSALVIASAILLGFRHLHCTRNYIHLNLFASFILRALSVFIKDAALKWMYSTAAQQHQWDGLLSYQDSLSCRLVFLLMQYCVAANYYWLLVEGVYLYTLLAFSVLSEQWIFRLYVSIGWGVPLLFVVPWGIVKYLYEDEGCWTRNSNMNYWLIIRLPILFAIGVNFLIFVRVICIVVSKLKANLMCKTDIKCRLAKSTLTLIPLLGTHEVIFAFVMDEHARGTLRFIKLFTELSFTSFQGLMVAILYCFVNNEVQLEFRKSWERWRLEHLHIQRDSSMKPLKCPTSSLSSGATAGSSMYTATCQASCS
Text for human GLP-1 receptor: The cDNA encoding the human glucagon-like peptide 1 receptor (GLP-1R) (primary accession number P43220) was cloned from the cDNA BC112126(MGC:138331/IMAGE:8327594). The DNA encoding the GLP-1-R was amplified by PCR using primers encoding terminal restriction sites for subcloning. The 5′-end primers additionally encoded a near Kozak consensus sequence to ensure efficient translation. The fidelity of the DNA encoding the GLP-1-R was confirmed by DNA sequencing. The PCR products encoding the GLP-1-R were subcloned into a mammalian expression vector containing a neomycin (G418) resistance marker. The mammalian expression vectors encoding the GLP-1-R were transfected into HEK293 cells by a standard calcium phosphate transfection method. 48 hours post- transfection, cells were seeded for limited dilution cloning and selected with 1 mg/ml G418 in the culture medium. Following 3 weeks in G418 selection clones were picked and tested in a functional GLP-1 receptor potency assay as described below. One clone was selected for use in compound profiling.
GLP-1R and GLP-2 receptor potency assays.
The cAMP AlphaScreen® assay from Perkin Elmer was used to quantitate the cAMP response to activation of the GLP1 and GLP2 receptor, respectively. […]

Consider `CC[C@H](C)[C@H](NC(=O)[C@H](Cc1ccccc1)NC(=O)[C@H](CC(=O)O)NC(=O)[C@H](CCCNC(=N)N)NC(=O)[C@H](C)NC(=O)[C@H](C)NC(=O)[C@H](CCCCNC(=O)COCCOCCNC(=O)COCCOCCNC(=O)[C@H](CCCCN)NC(=O)[C@H](CCC(=O)O)NC(=O)[C@H](CCCCN)NC(=O)CC[C@H](NC(=O)CCCCCCCCCCCCCCCCCCC(=O)O)C(=O)O)NC(=O)[C@H](C)NC(=O)[C@H](CC(=O)O)NC(=O)[C@H](CC(C)C)NC(=O)[C@@H](NC(=O)[C@@H](NC(=O)[C@H](C)NC(=O)[C@H](CC(C)C)NC(=O)[C@H](CCC(=O)O)NC(=O)[C@H](CO)NC(=O)[C@@H](NC(=O)[C@H](Cc1ccccc1)NC(=O)[C@H](CO)NC(=O)CNC(=O)[C@H](CCC(=O)O)NC(=O)C(C)(C)NC(=O)[C@@H](N)Cc1c[nH]cn1)[C@@H](C)O)[C@@H](C)O)[C@@H](C)CC)C(=O)N[C@@H](C)C(=O)N[C@@H](Cc1c[nH]c2ccccc12)C(=O)N[C@@H](CC(C)C)C(=O)N[C@H](C(=O)N[C@@H](CCC(=O)O)C(=O)N[C@@H](Cc1c[nH]cn1)C(=O)N[C@@H](CCCCN)C(=O)N[C@H](C(=O)N[C@H](C(=O)N[C@@H](CC(=O)O)C(=O)O)[C@@H](C)O)[C@@H](C)CC)[C@@H](C)CC` [Compound 63] (H-H[Aib]EGSFTSELATILDAK([AEEA-AEEA-Lys-Glu-Lys-γGlu-C20 diacid])AARDFIAWLIEHKITD-OH), for which the half-maximal effective concentration (EC50) (as a rule, the concentration giving half of the maximal effect) amounted to 0.31 nM on human GLP-1 receptor and 0.17 nM at human GLP-2 receptor.

In the case of “Teduglutide (from UniProt P01275) (peptide)”, the EC50 GLP-2 (nM), cAMP AlphaScreen in assay [1] was 0.027 nM. Moreover, the EC50 GLP-1 (nM), cAMP AlphaScreen in assay [2] was found to be 39 nM.

Turning to `CC[C@H](C)[C@H](NC(=O)[C@H](Cc1ccccc1)NC(=O)[C@H](CC(=O)O)NC(=O)[C@H](CCCCNC(=O)COCCOCCNC(=O)[C@H](CCCCN)NC(=O)[C@H](CCC(=O)O)NC(=O)[C@H](CCCCN)NC(=O)CC[C@H](NC(=O)CCCCCCCCCCCCCCCCCCC(=O)O)C(=O)O)NC(=O)[C@H](C)NC(=O)[C@H](C)NC(=O)[C@H](CCC(N)=O)NC(=O)[C@H](CCC(=O)O)NC(=O)[C@H](CC(=O)O)NC(=O)[C@H](CC(C)C)NC(=O)[C@@H](NC(=O)[C@@H](NC(=O)[C@H](C)NC(=O)[C@H](CC(C)C)NC(=O)[C@H](CCC(=O)O)NC(=O)[C@H](CO)NC(=O)[C@@H](NC(=O)[C@H](Cc1ccccc1)NC(=O)[C@H](CO)NC(=O)CNC(=O)[C@H](CCC(=O)O)NC(=O)C(C)(C)NC(=O)[C@@H](N)Cc1c[nH]cn1)[C@@H](C)O)[C@@H](C)O)[C@@H](C)CC)C(=O)N[C@@H](C)C(=O)N[C@@H](Cc1c[nH]c2ccccc12)C(=O)N[C@@H](CC(C)C)C(=O)N[C@H](C(=O)N[C@@H](CCC(=O)O)C(=O)N[C@@H](Cc1c[nH]cn1)C(=O)N[C@@H](CCCCN)C(=O)N[C@H](C(=O)N[C@H](C(=O)N[C@@H](CC(=O)O)C(=O)O)[C@@H](C)O)[C@@H](C)CC)[C@@H](C)CC` [Compound 64] (H-H[Aib]EGSFTSELATILDEQAAK([AEEA-Lys-Glu-Lys-γGlu-C20 diacid])DFIAWLIEHKITD-OH), the values for the EC50 on human GLP-1 receptor and at human GLP-2 receptor were 0.49 nM and 0.2 nM, respectively.
